Reference: US10487045B2, “Adamantane derivative and use thereof” (TOHOKU UNIVERSITY, priority 2016, dated 2019)

Target: T1, Kir6.2 channel (Mus musculus, UniProt Q61743)
T1 construct: expressed in transfected cells; host or cells: Neuro2A (N2A) cells, transient transfection with pcDNA3.1-Kir6.2 (gift of Dr. Toru Ishizuka, Tohoku University)
T1 sequence (Q61743 1-390): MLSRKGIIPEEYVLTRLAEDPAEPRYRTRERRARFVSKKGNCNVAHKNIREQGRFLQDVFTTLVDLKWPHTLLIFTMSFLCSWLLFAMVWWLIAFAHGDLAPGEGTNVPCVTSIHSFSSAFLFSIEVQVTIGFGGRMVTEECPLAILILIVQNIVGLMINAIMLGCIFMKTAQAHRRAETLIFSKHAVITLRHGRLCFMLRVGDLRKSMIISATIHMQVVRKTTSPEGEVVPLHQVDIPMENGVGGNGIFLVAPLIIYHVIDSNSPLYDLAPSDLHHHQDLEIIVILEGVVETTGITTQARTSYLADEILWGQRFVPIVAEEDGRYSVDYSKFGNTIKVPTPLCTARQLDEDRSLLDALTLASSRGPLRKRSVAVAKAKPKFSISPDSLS
Experiment: CaMKII activation in N2A cells overexpressing Kir6.2 channel (immunoblotting, anti-phosphorylated CaMKII antibody)
Assay type: cell-based
Conditions: 10 nM, one hour, Kir6.2 channel overexpressing N2A cells; control without compound = 100%
Method: A plasmid vector having cDNA of Kir6.2 channel inserted therein: pcDNA3.1-Kir6.2, was obtained from Dr. Toru Ishizuka (Graduate School of Life Sciences, Tohoku University). The plasmid vector, pcDNA3.1-Kir6.2, was conditioned in accordance with the manual attached to GenElute HP Plasmid Maxiprep Kit (manufactured by Sigma-Aldrich). A culture solution (composition: DMEM culture solution 450 mL containing 50 ml of bovine serum and 100 units of penicillin/streptomycin) of Neuro2A cells (N2A cells, the National Instituted of Biomedical Innovation) cultured in DMEM culture solution (Gibco) was exchanged with Opti-Mem (Gibco)(containing Lipofectamine R2000 (1 μg/1 ml)) containing pcDNA3.1-Kir6.2 (1 μg/μl) conditioned above, and cultured for 5 hours to obtain N2A cells overexpressing Kir6.2 channel. Exchange with the DMEM culture solution was again performed and culture was carried out for two days. Thereafter, memantine (manufactured by Sigma-Aldrich) and the compound of the present invention (n=4 per group) were added in the culture solutions (DMEM, Gibco) so as to obtain a concentration of 10 nM based on the culture solution, and the culture solutions were allowed to stand still for one hour. Thereafter, Kir6.2 channel overexpressing N2A cells were collected and an SDS sample buffer was added to the N2A cells to prepare a suspension. The suspension was subjected to immunoblotting by use of an anti-phosphorylated CaMKII antibody (Fukunaga K et al., J. Biol. Chem. 1992, 267, 22527-22533) as a primary antibody and an anti-rabbit IgG antibody (manufactured by SouthernBiotech) as a secondary antibody (other conditions except the aforementioned antibodies were the same as those employed in ordinary immunoblotting), to investigate activation of CaMKII. As a result, in TP-009, TP-010, TP-011, TP-012, TP-014, TP-015, TP-048, TP-049, TP-050, TP-051, TP-052, TP-053, bands showing a reaction with the antibody against phosphorylated CaMKII were obtained. It was confirmed that activation of CaMKII is enhanced. In FIG. 1, the result of the case (control: c) where a test compound was not added is regarded as 100%. CaMKII activation of the cases containing memantine, TP-009, TP-010, TP-011, TP-012, TP-014, TP-015, TP-048, TP-049, TP-050, TP-051, TP-052, TP-053 (corresponding to M, 9, 10, 11, […], 15, 48, 49, 50, 51, 52 and 53, respectively) were shown in FIG. 1.

Q: How did the “activation of CaMKII (phosphorylated CaMKII bands)” value (“activation of CaMKII” below) turn out when `CC(=O)O[C@@H](c1ccccc1)[C@@H]1[C@@H]2C[C@H]3C[C@@](N=[N+]=[N-])(C2)C[C@]1(O)C3` [TP-009, (R)-((1R,2S,3R,5R,7S)-5-azido-1-hydroxyadamantan-2-yl)(phenyl)methyl acetate] was run?
A: enhanced

Q: `CCOC(=O)[C@@H](NC(C)=O)[C@@H]1[C@@H]2C[C@H]3C[C@@](Cl)(C2)C[C@]1(O)C3` [TP-010, ethyl (S)-2-acetamido-2-((1R,2S,3R,5R,7R)-5-chloro-1-hydroxyadamantan-2-yl)acetate] was tested. Which “activation of CaMKII” value did it give?
A: enhanced

Q: `CCOC(=O)[C@H](NC(C)=O)[C@@H]1[C@@H]2C[C@H]3C[C@@](Cl)(C2)C[C@]1(O)C3` [TP-011, ethyl (R)-2-acetamido-2-((1R,2S,3R,5R,7R)-5-chloro-1-hydroxyadamantan-2-yl)acetate] was tested. Which “activation of CaMKII” value did it give?
A: enhanced

Q: Which “activation of CaMKII” value does the source give for `COC(=O)[C@@H](NC(=O)C(F)(F)F)[C@@H]1[C@@H]2C[C@H]3C[C@@](Cl)(C2)C[C@]1(OC(=O)C(F)(F)F)C3` [TP-012, (1R,2S,3R,5R,7R)-5-chloro-2-((S)-2-methoxy-2-oxo-1-(2,2,2-trifluoroacetamido)ethyl)adamantan-1-yl 2,2,2-trifluoroacetate] here?
A: enhanced

Q: Which “activation of CaMKII” value does the source give for `N[C@H](C(=O)O)[C@@H]1[C@@H]2C[C@H]3C[C@@](O)(C2)C[C@]1(O)C3` [TP-015, (S)-2-amino-2-((1R,2S,3R,5R,7S)-1,5-dihydroxyadamantan-2-yl)acetic acid] here?
A: enhanced

Q: `O=C(N[C@@H](c1ccccc1)[C@H]1[C@H]2C[C@@H]3C[C@](Cl)(C2)C[C@@]1(O)C3)C(F)(F)F` [TP-048, N—((R)-((1S,2R,3S,5S,7S)-5-chloro-1-hydroxyadamantan-2-yl)(phenyl)methyl)-2,2,2-trifluoroacetamide] was tested. Which “activation of CaMKII” value did it give?
A: enhanced

Q: For `O=C(N[C@@H](c1ccccc1)[C@H]1[C@@H]2C[C@H]3C[C@@H](C2)C[C@]1(OC(=O)C(F)(F)F)C3)C(F)(F)F` [TP-049, (1S,2R,3S,5R,7S)-2-((R)-phenyl(2,2,2-trifluoroacetamido)methyl)adamantan-1-yl 2,2,2-trifluoroacetate], which “activation of CaMKII” value is on record?
A: enhanced

Q: With `COCCO[C@@]12C[C@H]3C[C@@H](C1)[C@H]([C@@H](NC(=O)C(F)(F)F)c1ccccc1)[C@](OC(=O)C(F)(F)F)(C3)C2` [TP-050, (1S,2R,3S,5S,7R)-5-(2-methoxyethoxy)-2-((R)-phenyl(2,2,2-trifluoroacetamido)methyl)adamantan-1-yl 2,2,2-trifluoroacetate] as the compound, how does the “activation of CaMKII” value read?
A: enhanced

Q: How did the “activation of CaMKII” value turn out when `O=C(N[C@@H](c1cccnc1)[C@H]1[C@H]2C[C@@H]3C[C@](Cl)(C2)C[C@@]1(O)C3)C(F)(F)F` [TP-051, N—((R)-((1S,2R,3S,5S,7S)-5-chloro-1-hydroxyadamantan-2-yl)(pyridin-3-yl)methyl)-2,2,2-trifluoroacetamide] was run?
A: enhanced

Q: Which “activation of CaMKII” value does the source give for `O=C(N[C@@H](c1ccccc1)[C@H]1[C@@H]2C[C@H]3C[C@@H](C2)C[C@]1(O)C3)C(F)(F)F` [TP-052, 2,2,2-trifluoro-N—((R)—((S,2R,3S,5R,7S)-1-hydroxyadamantan-2-yl)(phenyl)methyl) acetamide] here?
A: enhanced

Q: `CO[C@@]12C[C@H]3C[C@@H](C1)[C@H]([C@@H](NC(=O)C(F)(F)F)c1ccccc1)[C@](OC(=O)C(F)(F)F)(C3)C2` [TP-053, (1S,2R,3S,5S,7R)-5-methoxy-2-((R)-phenyl(2,2,2-trifluoroacetamido)methyl)adamantan-1-yl 2,2,2-trifluoroacetate] was tested. Which “activation of CaMKII” value did it give?
A: enhanced
